Reference: the NIST ThermoML archive (doi:10.1016/j.jct.2016.10.009)

Test: xn = mol fraction of the nth substance listed
Conditions: Liquid, Vibrating tube method

CC(C)OC(C)C [diisopropyl ether] + CCC(C)O
mass density [kg/m3]
Conditions | x2 = 0 | x2 = 0.2036 | x2 = 0.3227 | x2 = 0.4464 | x2 = 0.4973 | x2 = 0.6595 | x2 = 0.8482
333.15 K, 45000 kPa | – | – | – | 761.8 | 765.4 | 777.4 | 793.2
333.15 K, 50000 kPa | 739.1 | 750.4 | 757.8 | 765.7 | 769.2 | 781.1 | 796.6
333.15 K, 55000 kPa | 743.1 | 754.3 | 761.6 | 769.4 | 772.9 | 784.5 | 799.8
333.15 K, 60000 kPa | 747.1 | 758 | 765.2 | 772.9 | 776.4 | 787.9 | 803
333.15 K, 65000 kPa | 750.9 | 761.7 | 768.8 | 776.4 | 779.8 | 791.2 | 806
333.15 K, 70000 kPa | 754.4 | 765.1 | 772.1 | 779.7 | 783.1 | 794.3 | 808.9
333.15 K, 80000 kPa | 761.3 | 771.8 | 778.6 | 785.9 | 789.2 | 800.2 | 814.6
333.15 K, 90000 kPa | 767.7 | 778 | 784.7 | 791.9 | 795.1 | 805.9 | 820
333.15 K, 100000 kPa | 773.7 | 783.7 | 790.3 | 797.4 | 800.5 | 811.1 | 824.9
333.15 K, 110000 kPa | 779.4 | 789.3 | 795.8 | 802.7 | 805.9 | 816.1 | 829.8
333.15 K, 120000 kPa | 784.7 | 794.5 | 800.9 | 807.7 | 810.8 | 820.9 | 834.3
333.15 K, 130000 kPa | 789.9 | 799.5 | 805.9 | 812.5 | 815.6 | 825.6 | 838.8
333.15 K, 140000 kPa | 794.8 | 804.2 | 810.4 | 817 | 820 | 830 | 842.9
353.19 K, 100 kPa | – | 672.3 | 682 | 692.5 | – | 712.8 | 732.9
353.19 K, 1000 kPa | 659.5 | 674.1 | 683.6 | 694.1 | 698.7 | 714.2 | 734.2
353.19 K, 5000 kPa | 667.6 | 681.5 | 690.7 | 700.7 | 705.1 | 720 | 739.3
353.19 K, 10000 kPa | 676.5 | 689.7 | 698.5 | 708 | 712.3 | 726.7 | 745.2
353.19 K, 15000 kPa | 684.4 | 697.1 | 705.5 | 714.7 | 718.9 | 732.8 | 750.7
353.19 K, 20000 kPa | 691.5 | 703.8 | 711.9 | 720.9 | 724.9 | 738.3 | 755.8
353.19 K, 25000 kPa | 698 | 709.9 | 717.9 | 726.6 | 730.4 | 743.5 | 760.6
353.19 K, 30000 kPa | 704 | 715.7 | 723.4 | 731.9 | 735.7 | 748.5 | 765.1
353.19 K, 35000 kPa | 709.7 | 721 | 728.6 | 736.8 | 740.6 | 753.1 | 769.3
353.19 K, 40000 kPa | 714.8 | 725.9 | 733.3 | 741.5 | 745.1 | 757.3 | 773.4
353.19 K, 45000 kPa | 719.7 | 730.8 | 738 | 745.9 | 749.5 | 761.5 | 777.3
353.19 K, 50000 kPa | 724.6 | 735.3 | 742.4 | 750.3 | 753.8 | 765.6 | 781
353.19 K, 55000 kPa | 728.9 | 739.4 | 746.5 | 754.3 | 757.7 | 769.4 | 784.5
353.19 K, 60000 kPa | 733.2 | 743.6 | 750.5 | 758.1 | 761.6 | 773 | 788
353.19 K, 65000 kPa | 737.2 | 747.6 | 754.3 | 761.9 | 765.2 | 776.6 | 791.3
353.19 K, 70000 kPa | 741.1 | 751.3 | 758 | 765.5 | 768.8 | 780 | 794.6
353.19 K, 80000 kPa | 748.4 | 758.3 | 765 | 772.2 | 775.4 | 786.3 | 800.5
353.19 K, 90000 kPa | 755.4 | 765.1 | 771.5 | 778.6 | 781.8 | 792.4 | 806.4
353.19 K, 100000 kPa | 761.6 | 771.2 | 777.6 | 784.5 | 787.6 | 798 | 811.8
353.19 K, 110000 kPa | 767.8 | 777.1 | 783.4 | 790.2 | 793.3 | 803.5 | 816.9
353.19 K, 120000 kPa | 773.4 | 782.6 | 788.8 | 795.5 | 798.5 | 808.6 | 821.8
353.19 K, 130000 kPa | 778.8 | 787.8 | 793.9 | 800.6 | 803.5 | 813.4 | 826.5
353.19 K, 140000 kPa | 784 | 792.9 | 798.9 | 805.4 | 808.4 | 818.2 | 831
373.24 K, 1000 kPa | 635.6 | 649.8 | 659.4 | 670 | 674.8 | 690.8 | 711.2
373.24 K, 5000 kPa | 645.5 | 659 | 668 | 678.1 | 682.5 | 697.8 | 717.4
373.24 K, 10000 kPa | 656.1 | 668.7 | 677.2 | 686.9 | 691.1 | 705.6 | 724.3
373.24 K, 15000 kPa | 665.3 | 677.4 | 685.5 | 694.7 | 698.8 | 712.7 | 730.7
373.24 K, 20000 kPa | 673.5 | 685.1 | – | – | – | – | –
